Experimental findings from paper PMC8695704 (RSC Advances, 2021) are described below.

In this assay the target is T1, recombinant human S-COMT (Homo sapiens, UniProt P21964).
T1 sequence (P21964 1-221 isoform P21964-2): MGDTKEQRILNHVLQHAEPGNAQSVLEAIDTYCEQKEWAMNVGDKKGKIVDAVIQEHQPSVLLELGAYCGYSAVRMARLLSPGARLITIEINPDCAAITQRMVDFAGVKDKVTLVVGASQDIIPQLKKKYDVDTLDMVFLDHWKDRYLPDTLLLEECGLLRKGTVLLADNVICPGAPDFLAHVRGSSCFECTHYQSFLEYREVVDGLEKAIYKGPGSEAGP
The experiment in a line: COMT inhibition assay with the fluorescent probe substrate 3-BTD. In kind it is biochemical. The note with it: IC50, 3-BTD as substrate.

Each structure is given as a SMILES string.

Consider `O=C(O)[C@H]1O[C@@H](Oc2cc3oc(-c4ccc(O)cc4)cc(=O)c3c(O)c2O)[C@H](O)[C@@H](O)[C@@H]1O` [Scutellarin, scutellarin], for which the IC50 turned out to be 0.221 ± 0.032 µM.

Take `COc1c(O)cc(O)c2c(=O)cc(-c3ccccc3)oc12` [Wogonin, wogonin]: the IC50 was 24.1 ± 4.96 µM.

By IC50 is commonly meant the point on the concentration scale where inhibition reaches its midpoint.
